# According to patent EP0903341A1, “"Novel ortho-mercaptoaniline compounds"” (Akzo Nobel N.V., priority 1997, dated 1999):
# Key:
# Entamoeba histolytica = test: Anti-amoebic action in vivo in rats infected in the caecum (cure index); conditions: for cure index: five days
# [1] = test system: Entamoeba histolytica 200: NIH or E-32; test: Anti-amoebic action in vitro (axenic culture, minimum inhibitory concentration); assay type: cell-based; conditions: axenic culture in TYI-S-33 medium, 48 h incubation with compound at 37°C, amoebae counted by microscope, read-out: minimum concentration active in killing the amoeba
# Protocol: Axenic Entamoeba histolytica cultures were grown in glass, screw-capped tubes (16x100 mm) containing about 10 ml complete growth medium TYI-S-33. The tubes were inoculated with 0.5 ml of a 72 h old axenic culture of Entamoeba histolytica 200: NIH or E-32, obtained from an external supplier (Kothari Research Centre, Calcutta, India). After incubation for 24 h at 37°C compounds to be tested were added at desired concentrations. Incubation of the tubes was continued for an additional 48 h. The number of amoebae in the medium were counted by microscopic examination at 100x magnification. The complete growth medium TYI-S-33 medium was prepared by mixing aseptically 9 ml of a nutrient solution, 1 ml of animal serum, 0.3 ml of a vitamin mixture and 0.05 ml of a solution containing the antibiotics streptomycine and benzylpenicillin. The composition of TYI-S-33 medium and method of preparation is described in detail by Diamond (J Parasitology 54:1047-1056, 1968). Test compounds are tested at different concentrations, the highest is 100 µg/ml. Lower concentrations are tested in successive tests until the minimum inhibitory concentration is reached. The reference compounds tinidazole was active in killing the amoeba at a minimum concentration of 1.5 µg/ml. Compound B of this invention was active in killing the amoeba at a minimum concentration of 3.1 µg/ml.
Structure (SMILES),cure index (Entamoeba histolytica; Dose 9 mg/kg oral),cure index (Entamoeba histolytica; Dose 18.8 mg/kg oral),cure index (Entamoeba histolytica; Dose 37.5 mg/kg oral),cure index (Entamoeba histolytica; Dose 75 mg/kg oral),cure index (Entamoeba histolytica; Dose 100 mg/kg oral),"increase in cure index (in words) (Entamoeba histolytica; doses of 9 or 20 mg/kg per day, oral)",MIC [1],cure index (Entamoeba histolytica; Dose 150 mg/kg oral),cure index (Entamoeba histolytica; Dose 200 mg/kg oral)
"COc1ccc(CCNCCC(=O)N(C)c2ccccc2SC)cc1OC [Compound A, 3-[2-(3,4-dimethoxyphenyl)ethylamino]-N-methyl-N-[(2-methylthio)phenyl]-propionamide]",23 percentage of the control group,34 percentage of the control group,56 ±5 percentage of the control group,76 ±6 percentage of the control group,74 ± 10 percentage of the control group,No increase in cure index,–,–,–
"COc1ccc(CSc2ccccc2N(C)CCCN(C)CCc2ccc(OC)c(OC)c2)cc1 [Compound B, N-[2-(3,4-dimethoxyphenyl)ethyl]-N-methyl-N'-[2-(4-methoxyphenyl)methylthiophenyl]-N'-methyl-1,3-diaminopropane]",–,–,–,–,–,–,3.1 µg/mL,–,–
"CCS(=O)(=O)CCn1c([N+](=O)[O-])cnc1C [Tinidazole, reference compound]",–,–,–,51 ± 8 percentage of the control group,–,–,1.5 µg/mL,66 ± 5 percentage of the control group,81 ± 5 percentage of the control group
